According to US20180000768A1, “INTESTINAL FXR AGONISM ENHANCES GLP-1 SIGNALING TO RESTORE PANCREATIC BETA CELL FUNCTIONS” (Salk Institute for Biological Studies, priority 2015, published 2018):

Legend:
[1] = system: NCI-H716 cells; experiment: Extracellular oxygen consumption rate assay (Seahorse XF96); format: cell-based, human
Method: Briefly, NCI-H716 cells were seeded in XF 96-well cell culture microplates (Seahorse Bioscience) at 6.0×10^4 cells per well in 150 μl of growth medium and then incubated at 37° C./5% CO2 for 24 hr. A Seahorse Bioscience instrument model XF96 was used to measure the rate of change of dissolved oxygen in the media surrounding the cells. All procedures followed manufacturer's instructions. […] Conversely, treatment with the FXR antagonist guggulsterone reduced basal respiratory rates and the FCCP-induced maximum respiration rate (FIGS. 9A and 9B). To examine the effects of FXR activity on the secretion of GLP-1, the metabolic changes induced in human L cells was measured after treatment with the FXR agonist, fexaramine and an FXR antagonist, guggulsterone. Treatment of L cells with fexaramine (1 μM for 24 hours) lead to an increase in the oxygen consumption rate (OCR), consistent with increased mitochondrial activity and consequently, an increased energetic state (FIG. 9A). The reverse effect was seen after treatment with the FXR antagonist, guggulsterone, with lower OCR after drug treatment.

[2] = system: human enteroendocrinal L cells (NCI-H716); experiment: In vitro GLP-1 secretion assay; format: cell-based; settings: L cells pretreated with compound
Method: (§1) In vitro GLP-1 secretion assay was performed in human enteroendocrinal L cells (NCI-H716). For each secretion assay, cells were seeded at 1×10^5 cells/ml (1 ml/well) in a matrigel-coated 24-well plate. Prior to GLP-1 secretion assay, cells were pre-treated with DMSO, 1 μM Fex, or 1 μM Fex-D overnight. Cells were deprived in Krebs buffer (with 0.1% BSA) with dipeptidyl peptidase (DPP)-4 inhibitor ([…] sitagliptin). GLP-1 was measured with a commercial kit (EZGLP1T-36K, Millipore). For in vivo GLP-1 secretion, each animal was gavaged with 25 mg per kg of body weight sitagliptin 60-minutes before glucose load. Blood was collected from the tail vein at the indicated intervals, and transferred to serum collection tubes containing sitagliptin.

[3] = system: ob/ob mice; experiment: in vivo GLP-1 secretion after glucose load; set-up: species or system mouse; settings: Fex-treated ob/ob mice, sitagliptin (25 mg/kg) prior to glucose challenge
Method: as §1
To investigate whether Fex enhances GLP-1 secretion in vivo, mice were challenged with a DPP4 inhibitor, sitagliptin (25 mg/kg) prior to a glucose challenge.

[4] = system: pancreatic islets from ob/ob mice; experiment: Insulin secretion assay on isolated pancreatic islets (ex vivo); format: cell-based, mouse; settings: islets from Fex-treated mice
Method: Mouse pancreatic islets were isolated from ob/ob mice according to a method used for rats traditionally. Briefly, 0.5 mg/ml collagenase P (Roche) diluted in HBSS buffer was injected through the common bile duct and the perfused pancreas was dissected and incubated in water bath with 37° C. for 21 minutes. Digested exocrine cells and intact islets were separated using Histopaque-1077 (SIGMA) with centrifugation by 900 g for 15 minutes and intact islets were picked up manually.
Insulin release from intact islets was monitored using batch incubation methods.
Isolated pancreatic islets were cultured over-night with […] supplemented with 10% (v/v) fetal bovine serum and 1% (v/v) Antibiotics-antimycotic solution, were pre-cultured at 37° C. for 30 minutes in Krebs Ringer bicarbonate buffer (KRBH) containing 129.4 mM NaCl, 3.7 mM KCl, 2.7 mM CaCl2, 1.3 mM KH2PO4, 1.3 mM MgSO4, 24.8 mM NaHCO3 (equilibrated with 5% CO2, 95% O2, pH7.4), 10 mM HEPES and 0.2% (v/v) BSA (fraction V) with 3 mM glucose. N ext, the pancreatic islets were incubated for 30 minutes KRBH buffer (500 μl/10 islets) with 3 mM or 20 mM glucose with or without 100 nM Exendin-4 to determine insulin secretion levels. At the end of the incubation period, islets were pelleted by centrifugation, and aliquots of the buffer were sampled. The amounts of insulin were determined by Rat/mouse Insulin ELISA KIT (Millipore) for mice islets.

[5] = system: isolated islets; experiment: gene expression after direct ex vivo treatment of isolated islets; format: cell-based, mouse; settings: 24 hours ex vivo, XL335 1 μM, Fex 1 μM
Method: Leptin-deficient ob/ob mice were treated daily with vehicle, Fex, or the analogue Fex-D (50 mg/kg) via P.O. for 14 days (A) Chemical structures of fexaramine and Fex-D (B) Schematic of the experimental design (C) Serum glucose levels (D) Glucose tolerance test (E) Insulin secretion in vivo (F) GLP-1 secretion in vivo (G) Heatmap showing hierarchal clustering of gene expression changes in islet induced by Fex (100 mg/kg, 4 wks) and FexD (50 mg/kg, 2 weeks) treatment in ob/ob mice (in vivo); by treatment of islets with XL335 (1 μM), Fex (1 μM), mFgf15 and hFgf19 (24 hours ex vivo); and mFgf15 (0.15 mg/kg, 2 weeks) and INT777 (Tgr5, 60 mg/kg, 4 weeks) treatment of ob/ob mice (in vivo). Gene expression was measured by RNA-Seq and changes are expressed as Z-score. (H) Ven diagram of changes in gene expression in pancreatic islets induced by FEX (100 mg/kg for 5 weeks) and FEX-D (50 mg/kg for 14 days). […] Data represent the mean±STD. Statistical analysis was performed with the Student's t test. *p<0.05, **p<0.01.
Next, primary islets were isolated from mice treated by Fex-D to compare gene expression changes.

COC(=O)/C=C/c1cccc(N(Cc2ccc(-c3ccc(N(C)C)cc3)cc2)C(=O)C2CCCCC2)c1 [Fexaramine]
maximum respiration rate induced by FCCP ([1]; L cells, Fex 1 μM for 24 hr, vehicle-treated L cells 130%): 155%
oxygen consumption rate (OCR) ([1]; human L cells, 24 hours, fexaramine 1 μM, guggulsterone 10 μM): increase
GLP-1 secretion in response to a glucose challenge [2]: significant increase
glucose tolerance after DPP4 inhibitor pre-treatment [3]: improved
plasma GLP-1 level 20 minutes after the glucose challenge [3]: increase
ex vivo insulin secretion in response to 20 mM glucose [4]: dramatically increased
insulin content in ex vivo islets [4]: significantly higher
transcriptional changes seen in islets in vivo with Fex and Fex-D [5]: not observed
